# Experiments:
# [1] = compound: T1, C[C@H]1CNCCN1c1nccc(-c2noc3c2CCC[C@@]32CCCc3sc(N)c(C#N)c32)n1 [BI-2493]; conditions: 5 days
# Description: (§1)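 PRISM pooled barcoded cancer cell line viability screen (Broad Institute) with BI-2493 at 8 doses in threefold dilutions from 0.00457 to 10 µmol/L, 5-day treatment; curves fitted per cell line. IC50 is undefined (placeholder) for resistant lines. AUC is capped at 1, and sensitivity is reported as 1 − AUC.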
# [2] = compound: T1, BI-2493; assay: 1 - AUC of viability dose-response curve (sensitivity) (fraction); higher = more sensitive; conditions: 5 days
# Description: as §1
Test System,IC50 of cell viability [1] [µM],1 - AUC of viability dose-response curve [2]
PEA1_OVARY,5.96,0.0757
PECAPJ15_UPPER_AERODIGESTIVE_TRACT,5.35,0.125
PECAPJ41CLONED2_UPPER_AERODIGESTIVE_TRACT,8.74,0.0352
PECAPJ49_UPPER_AERODIGESTIVE_TRACT,5.93,0.0961
PEDS005TPFAD_KIDNEY,4.24,0.199
PEDS005TSUSP_KIDNEY,7.58,0.0633
PEDS015T_SOFT_TISSUE,> 10,0.0985
PF382_HAEMATOPOIETIC_AND_LYMPHOID_TISSUE,5.53,0.102
PFSK1_CENTRAL_NERVOUS_SYSTEM,> 10,0.063
PK1_PANCREAS,6.81,0.131
PK8_PANCREAS,2.17,0.161
PK45H_PANCREAS,4.3,0.168
PK59_PANCREAS,1.05,0.336
PL21_HAEMATOPOIETIC_AND_LYMPHOID_TISSUE,0.451,0.358
PLCPRF5_LIVER,5.13,0.132
PMFKO14_LARGE_INTESTINE,7.87,0.106
PSN1_PANCREAS,9.23,0.137
QGP1_PANCREAS,1.55,0.253
RBE_BILIARY_TRACT,2.47,0.243
RCC10RGB_KIDNEY,6.59,0.0818
RCHACV_HAEMATOPOIETIC_AND_LYMPHOID_TISSUE,4.98,0.198
RCK8_HAEMATOPOIETIC_AND_LYMPHOID_TISSUE,4.38,0.0825
RCM1_LARGE_INTESTINE,1.73,0.271
RDES_BONE,9.6,0.0344

Test System,IC50 of cell viability [1] [µM],1 - AUC of viability dose-response curve [2]
RD_SOFT_TISSUE,9.09,0.0771
RERFGC1B_STOMACH,3.33,0.262
RERFLCAD1_LUNG,4.27,0.18
RERFLCAD2_LUNG,4.39,0.12
RERFLCKJ_LUNG,8.19,0.0525
RERFLCMS_LUNG,8.02,0.037
RH4_SOFT_TISSUE,6.58,0.0866
RH28_SOFT_TISSUE,5.97,0.0907
RH30_SOFT_TISSUE,9.22,0.0138
RH36_SOFT_TISSUE,6.76,0.119
RI1_HAEMATOPOIETIC_AND_LYMPHOID_TISSUE,6.4,0.106
RKO_LARGE_INTESTINE,7.43,0.0968
RL952_ENDOMETRIUM,3.87,0.108
RL_HAEMATOPOIETIC_AND_LYMPHOID_TISSUE,4.21,0.0967
RMGI_OVARY,9.09,0.0414
RMSYM_SOFT_TISSUE,6.04,0.119
RMUGS_OVARY,5.26,0.122
RO82W1_THYROID,5.35,0.123
RPMI7951_SKIN,6.06,0.0692
RPMI8402_HAEMATOPOIETIC_AND_LYMPHOID_TISSUE,6.85,0.0899
RT4_URINARY_TRACT,5.51,0.147
RT112_URINARY_TRACT,1.22,0.281
RVH421_SKIN,5.43,0.133
S117_THYROID,4.21,0.0998

Test System,IC50 of cell viability [1] [µM],1 - AUC of viability dose-response curve [2]
SAOS2_BONE,9.58,0.0212
SBC5_LUNG,5.31,0.122
SCC3_HAEMATOPOIETIC_AND_LYMPHOID_TISSUE,8.83,0.0243
SCC9_UPPER_AERODIGESTIVE_TRACT,6.27,0.11
SCC25_UPPER_AERODIGESTIVE_TRACT,5.3,0.128
SCLC21H_LUNG,7.84,0.0414
SF126_CENTRAL_NERVOUS_SYSTEM,4.43,0.0902
SF295_CENTRAL_NERVOUS_SYSTEM,9.02,0.0199
SF539_CENTRAL_NERVOUS_SYSTEM,9.12,0.173
SG231_BILIARY_TRACT,2.09,0.286
SH4_SKIN,6.75,0.0518
SH10TC_STOMACH,4.52,0.125
SHMAC5_PROSTATE,3.3,0.118
SIMA_AUTONOMIC_GANGLIA,> 10,0.159
SJSA1_BONE,7.93,0.095
SKES1_BONE,6.06,0.128
SKGII_ENDOMETRIUM,8.23,0.0529
SKGI_ENDOMETRIUM,4.89,0.142
SKGT2_STOMACH,9.72,0.00814
SKGT4_OESOPHAGUS,0.494,0.403
SKLMS1_SOFT_TISSUE,9.65,0.0071
SKLU1_LUNG,1,0.329
SKM1_HAEMATOPOIETIC_AND_LYMPHOID_TISSUE,0.316,0.446
SKMEL2_SKIN,9.59,0.0065

Test System,IC50 of cell viability [1] [µM],1 - AUC of viability dose-response curve [2]
SKMEL5_SKIN,7.01,0.0596
SKMEL24_SKIN,9.18,0.157
SKMEL28_SKIN,4.05,0.217
SKMEL30_SKIN,9.15,0.0152
SKMES1_LUNG,8.98,0.0245
SKNAS_AUTONOMIC_GANGLIA,4.32,0.086
SKNBE2_AUTONOMIC_GANGLIA,4.48,0.206
SKNDZ_AUTONOMIC_GANGLIA,9.28,0.012
SKNFI_AUTONOMIC_GANGLIA,5.39,0.112
SKNMC_BONE,7.83,0.193
SKNSH_AUTONOMIC_GANGLIA,> 10,0.25
SKN_ENDOMETRIUM,6.7,0.101
SKOV3_OVARY,7.06,0.0812
SKPNDW_BONE,9.05,0.0174
SKUT1_SOFT_TISSUE,4.83,0.207
SMSCTR_SOFT_TISSUE,> 10,0.0341
SNGM_ENDOMETRIUM,7.12,0.0648
SNU1_STOMACH,5.53,0.102
SNU46_UPPER_AERODIGESTIVE_TRACT,5.4,0.192
SNU61_LARGE_INTESTINE,0.465,0.307
SNU81_LARGE_INTESTINE,9.39,0.129
SNU119_OVARY,5.65,0.162
SNU182_LIVER,> 10,0.0527
